Measured values taken from patent publication US4749710A, “Immunosuppressive agents” (priority 1985, dated 1988).

Test system: IgM production by human lymphocytes
Assay: Inhibition of IgM production by human lymphocytes in vitro (SAC activation, ELISA)
Type: cell-based
Settings: 8 days, vehicle control 2.49 ± 0.17
Summary of the method: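 Human PBL (2.5×10^6 cells/ml in 20% FBS RPMI) activated with SAC (1:20,000) for 8 days with vitamin D derivatives at 10^-5–10^-10 M final, 0.1% ethanol vehicle, triplicates. Secreted IgM or IgG quantified by ELISA and compared with vehicle cultures.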

SMILES	IgM μg per culture (x ± S.E.M.) (1 × 10^-6 molar)	IgM μg per culture (x ± S.E.M.) (1 × 10^-7 molar) [μg per culture]	IgM μg per culture (x ± S.E.M.) (1 × 10^-8 molar) [μg per culture]	IgM μg per culture (x ± S.E.M.) (1 × 10^-9 molar) [μg per culture]	IgM μg per culture (x ± S.E.M.) (1 × 10^-10 molar) [μg per culture]
C=C1/C(=C\C=C2/CCC[C@]3(C)[C@@H]([C@H](C)C[C@H](O)CC(C)(C)O)CC[C@@H]23)C[C@@H](O)C[C@@H]1O [1α,23S,25-(OH)3 --D3, 1α,23S,25-Trihydroxycholecalciferol]	undetectable	0.12 ± 0.07	0.46 ± 0.13	1.55 ± 0.96	4.61 ± 0.73
C=C1/C(=C\C=C2/CCC[C@]3(C)[C@@H]([C@H](C)/C=C/[C@H](C)[C@](C)(O)CO)CC[C@@H]23)C[C@@H](O)C[C@@H]1O [1α,25S,26-(OH)3 --D2, 1α,25S,26-Trihydroxyergocalciferol]	0.01 ± 0.006 μg per culture	0.03 ± 0.01	0.14 ± 0.12	0.29 ± 0.17	1.09 ± 0.26
C=C1/C(=C\C=C2/CCC[C@]3(C)[C@@H]([C@H](C)C=CC[C@](C)(O)CO)CC[C@@H]23)C[C@@H](O)C[C@@H]1O [1α,25S,26-(OH)3 --Δ^22 -D3, 1α,25S,26-Trihydroxy-Δ^22-cholecalciferol]	undetectable	0.05 ± 0.03	0.09 ± 0.04	0.24 ± 0.07	1.02 ± 0.34
